Data from patent US20120225848A1, “Antagonists of GABA-B Receptors to Enhance Neuronal Function, Learning and Memory” (priority 2009, published 2012).

What was measured:
[1] = tested on: dentate gyrus (DG) of hippocampal slices; experiment: Paired-pulse depression of the population spike (feedback inhibition) in DG; assay type: cell-based, mouse; details: 1 μM, interstimulus interval 30 ms
Method: Recording of evoked field potentials. A slice was transferred into the recording submerged chamber and superfused with ACSF at a constant rate of 2.5 ml/min at 32° C. Recording electrodes were made of borosilicate glass capillaries (1B150F, World Precision Instruments, Sarasota, Fla.) and were filled with 2M NaCl (resistance 0.3-0.5 MΩ). Monopolar stimulating electrodes were maid of Pt/Ir wires with diameter 25.4 μm (PTT0110, World Precision Instruments, Sarasota, Fla.) and had 100-μm-long exposed tips. […]
The amplitude of the population spike was measured as follows: 1) a line was drawn at the base of the population spike connecting the first and second peaks of the field response; 2) a second line was drawn at the peak of the population spike (i.e. at the peak of the downward deflection); 3) at the peak of the spike, a line was drawn vertically between these two lines to give the amplitude of the population spike. The magnitude of the field excitatory postsynaptic potential (fEPSP) was measured as the initial slope of the linear part of the fEPSP (latencies 0.1-0.9 ms). […]
Effects of GABAB antagonists on pro-epileptic properties in Ts65Dn DG. […] We evaluated the effect of GABAB antagonists on feedback inhibition by measuring paired-pulse depression of the population spike amplitude (PS2/PS1). […]

[2] = tested on: dentate gyrus (DG) of hippocampal slices; assay type: cell-based, mouse; details: 1 μM
[3] = tested on: dentate gyrus (DG) of hippocampal slices; experiment: LTP of evoked field potentials in dentate gyrus of hippocampal slices; assay type: cell-based, mouse
[4] = target: T1, Kir3.2-containing potassium channels (Homo sapiens, UniProt P48051); details: Kobayashi et al., 2004; read-out: IC50 for block of Kir3.2 channels; cited from earlier work
T1 sequence (P48051 1-423): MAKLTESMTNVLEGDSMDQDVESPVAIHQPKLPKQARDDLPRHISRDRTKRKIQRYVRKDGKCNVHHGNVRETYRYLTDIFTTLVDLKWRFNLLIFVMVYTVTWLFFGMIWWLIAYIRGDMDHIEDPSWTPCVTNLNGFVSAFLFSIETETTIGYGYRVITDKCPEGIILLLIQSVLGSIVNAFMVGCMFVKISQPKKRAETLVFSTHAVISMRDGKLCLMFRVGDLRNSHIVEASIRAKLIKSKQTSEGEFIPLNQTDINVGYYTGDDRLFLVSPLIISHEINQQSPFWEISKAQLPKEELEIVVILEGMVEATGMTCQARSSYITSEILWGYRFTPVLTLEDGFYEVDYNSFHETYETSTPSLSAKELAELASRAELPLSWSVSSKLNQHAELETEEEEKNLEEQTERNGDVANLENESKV

[5] = tested on: dentate gyrus (DG) of hippocampal slices; experiment: Spontaneous ictal bursts in high-potassium model of epilepsy in hippocampal slices; assay type: cell-based, mouse; details: 1 μM, extracellular potassium 7.5 mM
Description: To evaluate more directly the potential effects of GABAB antagonists on epileptic properties of DG neural circuits, we examined spontaneous ictal bursts in hippocampal slices provoked by an increase in extracellular potassium. […] These changes were greater in Ts65Dn than in 2N slices (p<0.05). […] While the mechanism of the effect is yet to be refined, reduced electrochemical potential for potassium ions and the enhancement of feedback inhibition may both play a role.

[6] = target: presynaptic GABAB receptors; details: Pozza et al., 1999; read-out: IC50 for presynaptic receptors in hippocampal slices; cited from earlier work
Sequence of presynaptic GABAB receptors (Q9UBS5 20-961): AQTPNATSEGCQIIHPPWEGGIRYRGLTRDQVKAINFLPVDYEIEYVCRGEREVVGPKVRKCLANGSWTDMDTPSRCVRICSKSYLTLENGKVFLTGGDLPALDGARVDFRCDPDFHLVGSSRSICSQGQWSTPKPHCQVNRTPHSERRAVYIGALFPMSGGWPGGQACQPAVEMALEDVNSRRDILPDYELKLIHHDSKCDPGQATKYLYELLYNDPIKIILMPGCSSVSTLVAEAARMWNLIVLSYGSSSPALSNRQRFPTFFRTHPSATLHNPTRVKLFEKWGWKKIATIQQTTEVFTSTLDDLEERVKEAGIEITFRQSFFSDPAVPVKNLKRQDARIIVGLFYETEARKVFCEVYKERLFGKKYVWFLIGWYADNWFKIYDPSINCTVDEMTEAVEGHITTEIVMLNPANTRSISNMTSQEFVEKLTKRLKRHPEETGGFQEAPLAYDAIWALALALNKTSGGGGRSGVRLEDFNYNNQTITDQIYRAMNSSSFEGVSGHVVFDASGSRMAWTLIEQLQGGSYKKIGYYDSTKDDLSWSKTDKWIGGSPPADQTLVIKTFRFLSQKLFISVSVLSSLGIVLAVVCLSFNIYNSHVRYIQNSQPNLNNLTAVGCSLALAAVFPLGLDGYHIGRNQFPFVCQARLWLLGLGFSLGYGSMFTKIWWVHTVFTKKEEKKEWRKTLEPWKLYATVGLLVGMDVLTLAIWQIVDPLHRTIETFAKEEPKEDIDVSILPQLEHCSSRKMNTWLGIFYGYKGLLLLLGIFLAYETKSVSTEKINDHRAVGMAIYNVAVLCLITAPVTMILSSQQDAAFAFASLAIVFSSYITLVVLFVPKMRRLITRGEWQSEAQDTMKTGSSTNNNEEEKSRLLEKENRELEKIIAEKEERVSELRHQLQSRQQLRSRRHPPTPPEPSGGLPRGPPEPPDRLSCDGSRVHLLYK
Sequence of presynaptic GABAB receptors (O75899 42-941 partner): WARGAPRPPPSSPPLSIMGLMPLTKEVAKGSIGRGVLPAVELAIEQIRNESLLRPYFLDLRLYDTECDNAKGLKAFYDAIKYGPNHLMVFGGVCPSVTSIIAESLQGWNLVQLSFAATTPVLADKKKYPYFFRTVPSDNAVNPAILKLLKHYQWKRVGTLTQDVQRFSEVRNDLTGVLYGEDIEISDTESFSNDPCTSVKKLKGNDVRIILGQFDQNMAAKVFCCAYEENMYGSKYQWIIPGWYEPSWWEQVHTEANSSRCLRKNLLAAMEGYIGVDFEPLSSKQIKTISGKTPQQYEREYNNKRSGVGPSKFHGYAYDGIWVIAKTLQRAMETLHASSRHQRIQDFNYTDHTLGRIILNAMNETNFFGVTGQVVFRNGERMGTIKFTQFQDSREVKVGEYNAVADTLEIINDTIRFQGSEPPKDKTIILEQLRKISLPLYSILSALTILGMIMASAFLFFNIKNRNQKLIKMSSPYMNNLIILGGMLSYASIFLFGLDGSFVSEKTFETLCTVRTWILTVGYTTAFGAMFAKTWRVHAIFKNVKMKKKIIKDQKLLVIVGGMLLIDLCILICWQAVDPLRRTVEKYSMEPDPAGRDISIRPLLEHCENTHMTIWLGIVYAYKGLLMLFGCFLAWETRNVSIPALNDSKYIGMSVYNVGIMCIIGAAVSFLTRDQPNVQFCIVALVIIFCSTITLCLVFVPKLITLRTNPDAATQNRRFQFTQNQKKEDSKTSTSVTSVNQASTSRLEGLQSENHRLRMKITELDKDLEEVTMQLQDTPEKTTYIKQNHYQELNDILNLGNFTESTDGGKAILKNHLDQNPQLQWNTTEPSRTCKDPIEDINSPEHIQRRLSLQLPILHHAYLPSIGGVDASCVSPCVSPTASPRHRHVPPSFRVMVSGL

[7] = Body weight during treatment; assay type: in vivo, mouse; details: 0.5 mg/kg i.p. once a day during 3 weeks; 2N and Ts65Dn mice
Method: (§1) Behavioral testing. All mice were exposed to the same series of behavioral tests starting at 2-2.5 months of age. Each mouse was handled for 10 min, twice a day, during the 7 days that preceded testing and for 3 days in between tests. Tests for spontaneous locomotor activity and open field were performed before the drug, during the acute (1 week), and during the chronic (3 weeks) phases of the drug administration. Novel object recognition task with a 24 hours delay was performed during the chronic phase (3 weeks) of the drug administration. All behavioral testing took place during the light cycle between 7:00 a.m. and 7:00 p.m. and was performed at room temperature (22° C.). On the day of testing, the mice were left in their home cages in the experimental room for 2 hours for habituation. To minimize olfactory cues from the previous trial, each apparatus was thoroughly cleaned with 10% ethanol after each animal. CGP55845 (0.5 mg/kg) or equivalent volume of saline was injected intraperitoneally once a day during 3 weeks. Body weight was measured weekly. The body weight was lower in Ts65Dn than in 2N mice, and it was not affected by the treatment (Supplementary FIG. S6). All behavioral tests and procedures were performed by operators who were blind to the genotypes and drug treatment.

2N and Ts65Dn mice [8] = experiment: Spontaneous locomotor activity in activity box; assay type: in vivo, mouse; details: 0.5 mg/kg i.p. daily, acute (1 week) and chronic (3 weeks)
Method: as §1, with “The body weight was lower in Ts65Dn than in 2N mice, and it was not affected by the treatment (Supplementary FIG. S6). All behavioral tests and procedures were performed by operators who were blind to the genotypes and drug treatment.” left out
Spontaneous locomotor activity. Spontaneous locomotor activity was monitored using square Plexiglas activity chambers (43.2×43.2×20 cm) and activity monitor software (Med Associates Activity Monitor, version 5.93.773). […] Distance moved, velocity, resting time, and times spent in pre-defined areas of the arena were recorded. […]

[9] = target: postsynaptic GABAB receptors (Homo sapiens, UniProt Q9UBS5); details: Pozza et al., 1999; read-out: IC50 for postsynaptic receptors in hippocampal slices; cited from earlier work
Sequence of postsynaptic GABAB receptors (Q9UBS5 20-961): as the sequence (Q9UBS5 20-961) above
Sequence of postsynaptic GABAB receptors (O75899 42-941 partner): as the sequence (O75899 42-941 partner) above

2N and Ts65Dn mice [10] = experiment: Novel object recognition with 24 h delay; assay type: in vivo, mouse; details: 0.5 mg/kg i.p. daily, 3 weeks
Method: as §1
Novel object recognition. The Bevins and Besheer protocol (Bevins and Besheer, 2006) for two sample objects with one environment was used to study learning and memory with 24 hours delays in 2N and Ts65Dn mice. Before testing, mice were habituated in a black Plexiglas chamber (31×24×27 cm) during 10 min for 2 consecutive days under dim ambient light conditions. Activity of mice during the object recognition task was recorded with a video camera. Two objects (A and B) consistent with height and volume, but different in shape and appearance were used in this test. […] The amount of time spent exploring each object (nose sniffing and head orientation within <1.0 cm) was recorded and evaluated by an operator, who was blind to both the phenotype and the treatment. […]

2N and Ts65Dn mice [11] = experiment: Open field activity; assay type: in vivo, mouse; details: 0.5 mg/kg i.p. daily, acute (1 week) and chronic (3 weeks)
Method: Behavioral testing. All mice were exposed to the same series of behavioral tests starting at 2-2.5 months of age. Each mouse was handled for 10 min, twice a day, during the 7 days that preceded testing and for 3 days in between tests. Tests for spontaneous locomotor activity and open field were performed before the drug, during the acute (1 week), and during the chronic (3 weeks) phases of the drug administration. Novel object recognition task with a 24 hours delay was performed during the chronic phase (3 weeks) of the drug administration. All behavioral testing took place during the light cycle between 7:00 a.m. and 7:00 p.m. and was performed at room temperature (22° C.). […] Body weight was measured weekly. […]
Open field activity. Open field activity was recorded with a video camera in the arena of white squared box (76×76×50 cm) and analyzed with an automated videotracking system EthoVision Pro 3.1 (Noldus Information Technology, Wageningen, The Netherlands). Mice were placed in the center of the open field arena under dim ambient light conditions and activity was monitored for 10 min in a single trial. […] Results were averaged for total distance traveled, number of entries and the time spent in the pre-determined areas (the center of the arena, the periphery, i.e. area extending 12 cm from the center, and the border, which included the four corners).

GABAB receptor = GABAB receptor (Homo sapiens, UniProt Q9UBS5); details: 1 μM; baclofen 5-10 μM; cited from earlier work
Sequence of GABAB receptor (Q9UBS5 20-961): as the sequence (Q9UBS5 20-961) above
Sequence of GABAB receptor (O75899 42-941 partner): as the sequence (O75899 42-941 partner) above

mRNAs for NGF and BDNF = details: Heese et al., 2000; cited from earlier work
Ts65Dn hippocampal LTP = details: in vitro system; Kleschevnikov 2004; cited from earlier work

**Q.** With `CCOC(OCC)P(=O)(O)CCCNCc1ccc(Cl)c(Cl)c1` [CGP52432] as the molecule, how does the PS2/PS1 ratio ([1]; 2N slices, baseline 1.09±0.18) read?
**A.** Its PS2/PS1 ratio is 0.93±0.25.

**Q.** What about the PS2/PS1 ratio ([1]; Ts65Dn slices, baseline 0.71±0.16) of the same molecule?
**A.** Its PS2/PS1 ratio is 0.59±0.17.

**Q.** And the “NMDA receptor-mediated component of the tetanus-evoked field responses” value [2]?
**A.** Its value is “enhanced the NMDA receptor-mediated responses”.

**Q.** And the “NMDA receptor-mediated component of the tetanus-evoked responses” value [2]?
**A.** The value was “restored to 2N levels”.

**Q.** What about the tetanus-evoked field responses [2] of the same molecule?
**A.** The tetanus-evoked field responses was “significantly increased”.

**Q.** And the “effect on LTP” value ([3]; 1.0 μM, Ts65Dn slices)?
**A.** The value was “enhanced LTP in the Ts65Dn DG”.

**Q.** With `CNCCC(Oc1ccc(C(F)(F)F)cc1)c1ccccc1` (stereo not drawn) [fluoxetine] as the molecule, how does the “effect on LTP” value ([3]; 10 μM, Ts65Dn DG) read?
**A.** Its value is “enhanced LTP in the Ts65Dn DG”.

**Q.** What about the IC50 [4] of the same molecule?
**A.** Its IC50 is ~10000 nM.

**Q.** For CGP55845, which “frequency of spontaneous ictal bursts” value ([5]; 2N and Ts65Dn DG, p=0.8) is on record?
**A.** Its value is “did not affect”.

**Q.** What about the “amplitude of burst-associated field potentials” value ([5]; change greater in Ts65Dn than 2N, p<0.01) of the same molecule?
**A.** Its value is “significantly reduced”.

**Q.** What about the IC50 [6] of the same molecule?
**A.** Its IC50 is 740 nM.

**Q.** And the body weight [7]?
**A.** The body weight was “not affected”.

**Q.** And the spontaneous locomotor activity (2N and Ts65Dn mice [8])?
**A.** Its spontaneous locomotor activity is “did not affect”.

**Q.** And the IC50 [9]?
**A.** The IC50 was 110 nM.

**Q.** What about the “effect on LTP” value ([3]; 0.1 μM, Ts65Dn slices) of the same molecule?
**A.** Its value is “enhanced LTP in Ts65Dn”.

**Q.** What about the “effect on LTP” value ([3]; 1.0 μM, 2N slices) of the same molecule?
**A.** The value was “enhanced LTP in both Ts65Dn and 2N slices”.

**Q.** What about the “effect on LTP” value ([3]; 1.0 μM, Ts65Dn slices) of the same molecule?
**A.** The value was “enhanced LTP in both Ts65Dn and 2N slices”.

**Q.** And the “exploration habits (total time of exploration of objects)” value (2N and Ts65Dn mice [10]; 2N and Ts65Dn mice)?
**A.** The value was “no effect”.

**Q.** What about the “improvement of memory in novel object recognition” value (2N and Ts65Dn mice [10]; 2N mice) of the same molecule?
**A.** The value was “observed only in Ts65Dn mice”.

**Q.** What about the discrimination index (2N and Ts65Dn mice [10]; Ts65Dn mice vs Ts65Dn vehicle control, p<0.05) of the same molecule?
**A.** The discrimination index was “significantly higher”.

**Q.** What about the “open field parameters (velocity, distance, time in regions)” value (2N and Ts65Dn mice [11]) of the same molecule?
**A.** The value was “no significant effect”.

**Q.** With `C[C@H](NC[C@H](O)CP(=O)(O)Cc1ccccc1)c1ccc(Cl)c(Cl)c1.Cl` [CGP 55845A] as the molecule, how does the “baclofen-induced postsynaptic hyperpolarization and depression of evoked IPSPs and EPSPs” value (GABAB receptor) read?
**A.** The value was “blocks”.

**Q.** With `CCCCP(=O)(O)CCCN` [CGP36742] as the molecule, how does the “levels of mRNAs for NGF and BDNF” value (mRNAs for NGF and BDNF) read?
**A.** The value was “increased”.

**Q.** Which “deficits in Ts65Dn hippocampal LTP” value (Ts65Dn hippocampal LTP) does the source give for picrotoxin here?
**A.** The value was “reverse”.
